Reference: ChEMBL document CHEMBL5291721, “A preclinical secondary pharmacology resource illuminates target-adverse drug reaction associations of marketed drugs” (Nat Commun, 2023)

How the values were obtained:
[1] = molecular target: Voltage-dependent L-type calcium channel subunit alpha-1C (Rattus norvegicus, UniProt P22002); assay type: functional
[2] = molecular target: T1, Muscarinic acetylcholine receptor M2 (Homo sapiens, UniProt P08172); assay type: functional, cell-based
T1 sequence (P08172 whole entry): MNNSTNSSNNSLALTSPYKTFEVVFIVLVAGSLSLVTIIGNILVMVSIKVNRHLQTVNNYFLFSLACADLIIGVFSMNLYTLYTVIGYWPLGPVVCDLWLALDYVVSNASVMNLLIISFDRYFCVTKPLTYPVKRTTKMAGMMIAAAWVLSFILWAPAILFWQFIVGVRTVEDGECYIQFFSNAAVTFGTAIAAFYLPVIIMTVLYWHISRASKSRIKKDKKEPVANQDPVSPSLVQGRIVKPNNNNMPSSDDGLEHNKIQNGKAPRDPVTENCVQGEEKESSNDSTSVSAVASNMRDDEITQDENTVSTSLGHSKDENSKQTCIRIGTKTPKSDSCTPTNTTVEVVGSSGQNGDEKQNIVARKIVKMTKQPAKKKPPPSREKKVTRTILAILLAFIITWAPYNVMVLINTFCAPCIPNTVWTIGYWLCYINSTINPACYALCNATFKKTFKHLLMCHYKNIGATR

Motilin receptor = Motilin receptor (Homo sapiens, UniProt O43193)
Motilin receptor, sequence (O43193 whole entry): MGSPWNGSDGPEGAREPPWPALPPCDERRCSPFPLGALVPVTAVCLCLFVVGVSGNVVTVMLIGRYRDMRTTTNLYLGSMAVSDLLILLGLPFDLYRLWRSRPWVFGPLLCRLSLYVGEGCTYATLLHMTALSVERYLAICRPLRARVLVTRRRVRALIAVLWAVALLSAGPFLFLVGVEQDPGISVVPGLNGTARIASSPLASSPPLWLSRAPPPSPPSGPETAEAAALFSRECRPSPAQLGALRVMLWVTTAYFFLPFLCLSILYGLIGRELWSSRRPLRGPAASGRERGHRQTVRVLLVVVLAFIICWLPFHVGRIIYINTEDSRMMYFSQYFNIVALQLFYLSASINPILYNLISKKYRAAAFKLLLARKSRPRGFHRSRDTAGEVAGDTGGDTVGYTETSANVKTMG

[3] = molecular target: Delta-type opioid receptor (Homo sapiens, UniProt P41143)
Delta-type opioid receptor, sequence (P41143 whole entry): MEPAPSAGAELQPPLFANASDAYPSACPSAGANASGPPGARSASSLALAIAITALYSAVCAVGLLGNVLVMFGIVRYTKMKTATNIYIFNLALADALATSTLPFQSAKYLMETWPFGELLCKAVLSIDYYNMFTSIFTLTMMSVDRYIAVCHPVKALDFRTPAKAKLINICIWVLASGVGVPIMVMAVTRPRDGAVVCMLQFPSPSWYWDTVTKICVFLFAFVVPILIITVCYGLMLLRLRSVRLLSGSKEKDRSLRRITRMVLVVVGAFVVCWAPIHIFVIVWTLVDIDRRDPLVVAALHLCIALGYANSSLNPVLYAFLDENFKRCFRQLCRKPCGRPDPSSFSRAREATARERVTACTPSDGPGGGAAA

Progesterone receptor = molecular target: T2, Progesterone receptor (Homo sapiens, UniProt P06401); assay type: functional
T2 sequence (P06401 whole entry): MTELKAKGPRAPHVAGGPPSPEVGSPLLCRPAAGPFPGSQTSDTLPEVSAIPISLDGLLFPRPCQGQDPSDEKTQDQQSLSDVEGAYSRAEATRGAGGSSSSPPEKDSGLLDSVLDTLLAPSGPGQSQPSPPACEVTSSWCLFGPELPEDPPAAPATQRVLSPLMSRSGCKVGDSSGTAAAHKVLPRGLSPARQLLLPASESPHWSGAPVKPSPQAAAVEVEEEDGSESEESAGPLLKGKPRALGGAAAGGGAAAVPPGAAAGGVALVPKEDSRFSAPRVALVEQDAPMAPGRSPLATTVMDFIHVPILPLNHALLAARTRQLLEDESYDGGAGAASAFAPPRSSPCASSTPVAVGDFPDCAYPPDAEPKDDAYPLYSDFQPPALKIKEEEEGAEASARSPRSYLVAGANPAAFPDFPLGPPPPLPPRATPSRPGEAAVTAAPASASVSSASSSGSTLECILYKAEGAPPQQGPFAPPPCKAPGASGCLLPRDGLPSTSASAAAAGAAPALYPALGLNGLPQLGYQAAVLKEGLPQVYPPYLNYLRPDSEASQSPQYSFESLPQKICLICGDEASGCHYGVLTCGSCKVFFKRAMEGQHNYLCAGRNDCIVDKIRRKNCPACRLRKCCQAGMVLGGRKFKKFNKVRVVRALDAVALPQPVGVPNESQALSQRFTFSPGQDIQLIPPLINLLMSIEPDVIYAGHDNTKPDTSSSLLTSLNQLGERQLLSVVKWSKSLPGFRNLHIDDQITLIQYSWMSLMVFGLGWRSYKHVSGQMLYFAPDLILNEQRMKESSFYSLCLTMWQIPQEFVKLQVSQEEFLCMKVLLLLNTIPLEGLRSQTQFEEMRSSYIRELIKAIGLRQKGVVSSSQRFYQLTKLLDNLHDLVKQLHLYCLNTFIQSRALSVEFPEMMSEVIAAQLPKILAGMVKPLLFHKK

[4] = molecular target: 5-hydroxytryptamine receptor 2A (Homo sapiens, UniProt P28223); assay type: functional, cell-based
5-hydroxytryptamine receptor 2A, sequence (P28223 whole entry): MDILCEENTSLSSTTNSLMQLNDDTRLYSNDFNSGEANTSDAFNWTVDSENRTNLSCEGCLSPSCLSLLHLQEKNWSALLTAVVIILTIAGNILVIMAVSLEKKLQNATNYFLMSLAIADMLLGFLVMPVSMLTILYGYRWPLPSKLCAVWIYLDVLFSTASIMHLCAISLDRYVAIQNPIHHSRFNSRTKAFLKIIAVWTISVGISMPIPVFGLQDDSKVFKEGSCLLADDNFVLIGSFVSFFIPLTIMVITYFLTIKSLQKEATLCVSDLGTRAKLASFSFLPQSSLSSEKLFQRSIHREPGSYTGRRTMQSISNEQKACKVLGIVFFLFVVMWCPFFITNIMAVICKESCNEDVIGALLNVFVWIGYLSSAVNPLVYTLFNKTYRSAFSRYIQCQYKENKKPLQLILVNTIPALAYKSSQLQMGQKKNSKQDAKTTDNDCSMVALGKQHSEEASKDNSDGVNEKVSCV

[5] = molecular target: 3',5'-cyclic-AMP phosphodiesterase 4D (Homo sapiens, UniProt Q08499); assay type: functional
3',5'-cyclic-AMP phosphodiesterase 4D, sequence (Q08499 whole entry): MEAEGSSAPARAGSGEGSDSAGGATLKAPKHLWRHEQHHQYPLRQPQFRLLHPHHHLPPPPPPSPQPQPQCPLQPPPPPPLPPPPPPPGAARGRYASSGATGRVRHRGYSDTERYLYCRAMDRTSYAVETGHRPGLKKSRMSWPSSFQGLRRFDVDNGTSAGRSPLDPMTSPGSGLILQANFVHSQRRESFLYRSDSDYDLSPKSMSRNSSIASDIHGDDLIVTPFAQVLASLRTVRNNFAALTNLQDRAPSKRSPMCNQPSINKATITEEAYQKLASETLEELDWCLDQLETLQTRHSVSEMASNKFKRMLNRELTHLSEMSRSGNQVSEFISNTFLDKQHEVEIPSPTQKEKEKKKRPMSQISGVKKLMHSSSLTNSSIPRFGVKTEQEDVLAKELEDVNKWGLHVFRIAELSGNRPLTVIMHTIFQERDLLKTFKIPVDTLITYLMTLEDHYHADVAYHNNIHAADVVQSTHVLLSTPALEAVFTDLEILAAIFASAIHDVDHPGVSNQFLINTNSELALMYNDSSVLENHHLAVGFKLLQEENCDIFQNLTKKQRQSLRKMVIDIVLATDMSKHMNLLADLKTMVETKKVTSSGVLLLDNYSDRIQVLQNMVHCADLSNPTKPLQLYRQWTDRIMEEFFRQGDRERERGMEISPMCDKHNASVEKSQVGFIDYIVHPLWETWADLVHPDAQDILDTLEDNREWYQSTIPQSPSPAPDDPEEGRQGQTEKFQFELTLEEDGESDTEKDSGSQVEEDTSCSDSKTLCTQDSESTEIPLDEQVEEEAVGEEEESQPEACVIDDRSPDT

[6] = molecular target: Gamma-aminobutyric acid receptor subunit alpha-1/alpha-2/beta-2/gamma-2 (Homo sapiens, UniProt P14867+P18507+P47869+P47870); assay type: functional, cell-based
[7] = molecular target: T3, Corticotropin-releasing factor receptor 1 (Homo sapiens, UniProt P34998)
T3 sequence (P34998 whole entry): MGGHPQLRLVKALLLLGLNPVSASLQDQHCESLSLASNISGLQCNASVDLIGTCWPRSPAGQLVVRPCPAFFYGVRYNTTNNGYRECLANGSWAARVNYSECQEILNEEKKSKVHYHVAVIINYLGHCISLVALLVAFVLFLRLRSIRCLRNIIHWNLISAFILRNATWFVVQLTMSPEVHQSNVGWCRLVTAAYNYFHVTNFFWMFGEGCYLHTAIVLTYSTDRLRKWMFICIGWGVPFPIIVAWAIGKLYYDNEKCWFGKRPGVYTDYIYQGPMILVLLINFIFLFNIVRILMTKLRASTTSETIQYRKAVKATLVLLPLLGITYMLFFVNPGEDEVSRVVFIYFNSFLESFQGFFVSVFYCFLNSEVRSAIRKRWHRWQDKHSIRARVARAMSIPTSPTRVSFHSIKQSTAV

[8] = molecular target: T4, Endothelin receptor type B (Homo sapiens, UniProt P24530)
T4 sequence (P24530 whole entry): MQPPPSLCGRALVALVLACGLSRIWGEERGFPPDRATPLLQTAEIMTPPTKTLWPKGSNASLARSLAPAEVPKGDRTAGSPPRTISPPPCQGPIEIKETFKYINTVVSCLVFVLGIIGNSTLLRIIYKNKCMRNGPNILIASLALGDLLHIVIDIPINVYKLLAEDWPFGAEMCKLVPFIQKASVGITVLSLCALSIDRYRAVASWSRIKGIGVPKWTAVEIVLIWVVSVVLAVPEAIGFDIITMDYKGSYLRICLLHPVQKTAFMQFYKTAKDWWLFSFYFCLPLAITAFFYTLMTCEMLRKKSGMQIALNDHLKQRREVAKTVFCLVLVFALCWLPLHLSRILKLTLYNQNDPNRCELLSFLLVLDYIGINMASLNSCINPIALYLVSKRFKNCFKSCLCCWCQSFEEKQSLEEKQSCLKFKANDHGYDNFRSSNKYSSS

D(1A) dopamine receptor = D(1A) dopamine receptor (Homo sapiens, UniProt P21728)
D(1A) dopamine receptor, sequence (P21728 whole entry): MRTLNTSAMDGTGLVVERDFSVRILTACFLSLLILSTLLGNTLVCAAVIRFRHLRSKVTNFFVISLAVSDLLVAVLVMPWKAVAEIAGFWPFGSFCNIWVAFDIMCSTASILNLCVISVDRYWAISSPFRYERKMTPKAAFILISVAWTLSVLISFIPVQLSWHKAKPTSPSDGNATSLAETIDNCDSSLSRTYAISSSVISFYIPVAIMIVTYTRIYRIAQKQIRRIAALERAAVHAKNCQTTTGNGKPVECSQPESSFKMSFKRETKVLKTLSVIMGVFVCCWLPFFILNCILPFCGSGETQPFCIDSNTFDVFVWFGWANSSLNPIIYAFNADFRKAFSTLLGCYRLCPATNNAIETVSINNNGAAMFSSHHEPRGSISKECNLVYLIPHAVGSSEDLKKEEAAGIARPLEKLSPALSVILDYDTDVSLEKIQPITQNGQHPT
Also: assay procedure not described here.

Voltage-dependent L-type calcium channel subunit alpha-1C, sequence (P22002 whole entry): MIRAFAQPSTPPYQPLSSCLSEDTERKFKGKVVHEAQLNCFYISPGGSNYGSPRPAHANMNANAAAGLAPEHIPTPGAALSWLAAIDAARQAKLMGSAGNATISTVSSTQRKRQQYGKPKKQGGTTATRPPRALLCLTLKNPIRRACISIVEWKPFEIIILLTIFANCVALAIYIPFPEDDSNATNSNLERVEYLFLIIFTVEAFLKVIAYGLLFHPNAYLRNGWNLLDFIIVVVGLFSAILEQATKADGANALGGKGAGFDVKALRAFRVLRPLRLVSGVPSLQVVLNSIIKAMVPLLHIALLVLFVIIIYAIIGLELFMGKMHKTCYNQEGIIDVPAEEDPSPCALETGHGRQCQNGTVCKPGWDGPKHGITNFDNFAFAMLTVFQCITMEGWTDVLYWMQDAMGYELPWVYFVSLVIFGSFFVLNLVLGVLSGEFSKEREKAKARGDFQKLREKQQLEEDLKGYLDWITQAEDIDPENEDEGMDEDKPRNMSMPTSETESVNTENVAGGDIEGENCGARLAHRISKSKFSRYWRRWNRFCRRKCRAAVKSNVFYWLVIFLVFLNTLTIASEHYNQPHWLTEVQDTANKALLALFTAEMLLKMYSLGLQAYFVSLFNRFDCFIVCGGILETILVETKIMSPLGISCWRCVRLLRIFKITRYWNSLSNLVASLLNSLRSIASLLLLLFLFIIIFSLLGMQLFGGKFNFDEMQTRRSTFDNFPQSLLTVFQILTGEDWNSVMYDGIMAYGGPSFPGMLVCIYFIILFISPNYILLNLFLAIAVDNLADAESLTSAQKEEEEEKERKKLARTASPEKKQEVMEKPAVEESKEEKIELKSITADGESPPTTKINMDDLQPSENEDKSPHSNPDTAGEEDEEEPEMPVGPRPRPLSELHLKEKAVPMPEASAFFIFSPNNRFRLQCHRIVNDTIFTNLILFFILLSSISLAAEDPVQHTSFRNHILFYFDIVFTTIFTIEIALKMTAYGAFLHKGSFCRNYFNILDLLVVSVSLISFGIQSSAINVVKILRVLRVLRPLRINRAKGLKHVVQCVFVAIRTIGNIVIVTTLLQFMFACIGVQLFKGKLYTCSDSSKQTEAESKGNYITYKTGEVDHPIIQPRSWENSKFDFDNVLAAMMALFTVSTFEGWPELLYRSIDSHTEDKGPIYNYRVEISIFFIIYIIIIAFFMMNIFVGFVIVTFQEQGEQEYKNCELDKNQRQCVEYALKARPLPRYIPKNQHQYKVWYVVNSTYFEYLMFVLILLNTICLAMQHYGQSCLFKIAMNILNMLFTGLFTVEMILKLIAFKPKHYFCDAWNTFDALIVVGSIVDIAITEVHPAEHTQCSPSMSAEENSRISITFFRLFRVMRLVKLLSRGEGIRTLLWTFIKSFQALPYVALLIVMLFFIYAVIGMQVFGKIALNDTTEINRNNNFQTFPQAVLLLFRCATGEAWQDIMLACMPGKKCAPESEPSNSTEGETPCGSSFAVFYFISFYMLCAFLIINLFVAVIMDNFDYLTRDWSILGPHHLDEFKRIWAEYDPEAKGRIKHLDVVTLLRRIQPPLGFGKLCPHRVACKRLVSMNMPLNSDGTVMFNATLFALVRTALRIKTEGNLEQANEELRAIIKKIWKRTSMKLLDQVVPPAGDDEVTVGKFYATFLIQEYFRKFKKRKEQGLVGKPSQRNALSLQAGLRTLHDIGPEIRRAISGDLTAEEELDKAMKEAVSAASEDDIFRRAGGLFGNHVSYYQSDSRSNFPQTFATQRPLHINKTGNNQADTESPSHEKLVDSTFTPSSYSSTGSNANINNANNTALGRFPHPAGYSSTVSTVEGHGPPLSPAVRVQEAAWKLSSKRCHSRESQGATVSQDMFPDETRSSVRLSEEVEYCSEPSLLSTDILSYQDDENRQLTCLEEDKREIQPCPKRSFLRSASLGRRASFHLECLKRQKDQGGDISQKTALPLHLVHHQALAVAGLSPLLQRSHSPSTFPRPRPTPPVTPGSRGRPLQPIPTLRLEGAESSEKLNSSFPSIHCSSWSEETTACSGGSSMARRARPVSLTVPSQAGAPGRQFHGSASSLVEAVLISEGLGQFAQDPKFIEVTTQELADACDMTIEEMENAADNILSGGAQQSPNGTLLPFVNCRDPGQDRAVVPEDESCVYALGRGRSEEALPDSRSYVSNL

Row | SMILES | AC50 [1] [µM] | AC50 [2] [µM] | AC50 (Motilin receptor) [µM] | AC50 [3] [µM] | AC50 (Progesterone receptor) [µM] | AC50 [4] [µM] | AC50 [5] [µM] | AC50 [6] [µM] | AC50 [7] [µM] | AC50 [8] [µM] | AC50 (D(1A) dopamine receptor) [µM]
1 | CC(/C=C1\SC(=S)N(CC(=O)O)C1=O)=C\c1ccccc1 | > 30 | > 30 | > 30 | 9 | > 30 | – | – | – | – | – | –
2 | O=C1CN2Cc3c(ccc(Cl)c3Cl)N=C2N1 [ANAGRELIDE] | > 10 | > 10 | > 10 | > 30 | – | > 30 | > 30 | – | – | – | –
3 | CNCC[C@@H](Oc1ccccc1C)c1ccccc1 [ATOMOXETINE] | > 30 | – | > 30 | > 30 | > 30 | – | > 30 | – | – | – | –
4 | CCc1oc2ccccc2c1C(=O)c1cc(Br)c(O)c(Br)c1 [BENZBROMARONE] | > 10 | – | > 30 | > 30 | > 30 | – | – | > 30 | – | – | –
5 | C=C(C)[C@@H]1CCC(C)=C[C@H]1c1c(O)cc(CCCCC)cc1O [CANNABIDIOL] | – | > 0.3 | 20.5 | > 30 | > 30 | > 30 | > 30 | – | – | – | –
6 | [H]/N=C(\N/C(=N/[H])NCCCCCCNC(=N)NC(=N)Nc1ccc(Cl)cc1)Nc1ccc(Cl)cc1 [CHLORHEXIDINE] | > 10 | – | 0.784 | > 10 | > 30 | > 10 | > 10 | – | – | – | –
7 | Clc1cccc(Cl)c1N=C1NCCN1 [CLONIDINE] | > 10 | > 10 | > 10 | > 30 | – | – | > 30 | – | > 30 | > 30 | > 10
8 | CN1C[C@H](C(=O)N[C@]2(C)O[C@@]3(O)[C@@H]4CCCN4C(=O)[C@H](Cc4ccccc4)N3C2=O)C[C@@H]2c3cccc4[nH]cc(c34)C[C@H]21 [DIHYDROERGOTAMINE] | > 10 | > 10 | > 10 | > 30 | – | – | 6.7 | – | > 30 | > 30 | 5.47
9 | CNCC[C@H](Oc1cccc2ccccc12)c1cccs1 [DULOXETINE] | > 10 | > 10 | 5.3 | > 30 | – | – | – | – | – | – | –
10 | CC1(C)O[C@@H]2C[C@H]3[C@@H]4C[C@H](F)C5=CC(=O)C=C[C@]5(C)[C@H]4[C@@H](O)C[C@]3(C)[C@]2(C(=O)CO)O1 [FLUNISOLIDE] | – | > 30 | > 30 | > 30 | 0.64 | – | > 30 | > 30 | – | – | –
11 | Nc1nc(O)c2ncn(COC(CO)CO)c2n1 [GANCICLOVIR] | > 30 | > 30 | > 30 | > 30 | > 30 | – | > 30 | – | – | – | –
12 | CC(=O)/N=c1/sc(S(N)(=O)=O)nn1C [METHAZOLAMIDE] | > 10 | > 10 | > 10 | > 30 | > 10 | > 10 | > 30 | – | – | – | –
13 | CC[C@@H](CO)NC(=O)[C@@H]1C=C2c3cccc4[nH]cc(c34)C[C@H]2N(C)C1 [METHYLERGONOVINE] | – | > 30 | > 30 | > 30 | > 30 | – | > 30 | – | – | – | –
14 | CC(=O)Oc1ccccc1C(=O)Nc1ncc([N+](=O)[O-])s1 [NITAZOXANIDE] | > 30 | – | 13 | 5 | > 30 | > 30 | > 30 | – | – | – | –
15 | CNCCC=C1c2ccccc2CCc2ccccc21 [NORTRIPTYLINE] | > 30 | 1.9 | > 30 | > 30 | > 30 | – | 7.5 | – | – | – | 0.386
16 | COc1ccc(Cc2nccc3cc(OC)c(OC)cc23)cc1OC [PAPAVERINE] | > 30 | > 30 | > 30 | – | > 30 | – | – | – | – | – | –
17 | O=C1NC(=O)C(c2ccccc2)(c2ccccc2)N1 [PHENYTOIN] | > 10 | > 30 | > 30 | > 30 | > 30 | – | > 30 | – | > 30 | > 30 | –
18 | CNC(=O)c1cc(Oc2ccc(NC(=O)Nc3ccc(Cl)c(C(F)(F)F)c3)c(F)c2)ccn1 [REGORAFENIB] | – | > 30 | – | > 30 | > 30 | > 30 | > 30 | – | – | – | –
19 | NC(=O)c1ncn([C@@H]2O[C@H](CO)[C@@H](O)[C@H]2O)n1 [RIBAVIRIN] | > 10 | > 10 | > 10 | > 30 | > 10 | – | > 30 | – | – | – | –
20 | O=C(Nc1c(Cl)cncc1Cl)c1ccc(OC(F)F)c(OCC2CC2)c1 [ROFLUMILAST] | – | > 30 | > 30 | – | > 30 | > 30 | – | – | – | – | –
21 | CC[C@H]1OC(=O)[C@H](C)[C@@H](O[C@H]2C[C@@](C)(OC)[C@@H](O)[C@H](C)O2)[C@H](C)[C@@H](O[C@@H]2O[C@H](C)C[C@H](N(C)C)[C@H]2O)[C@](C)(O)C[C@@H](C)/C(=N\OCOCCOC)[C@H](C)[C@@H](O)[C@]1(C)O [ROXITHROMYCIN] | – | > 30 | 9 | > 30 | > 30 | – | > 30 | > 30 | – | – | –
22 | CC(C)N(CCCCOCC(=O)NS(C)(=O)=O)c1cnc(-c2ccccc2)c(-c2ccccc2)n1 [SELEXIPAG] | > 30 | > 30 | > 30 | 25 | > 30 | > 30 | 4.81 | – | – | – | –
23 | Cn1c(=O)c2[nH]cnc2n(C)c1=O [THEOPHYLLINE] | > 10 | > 10 | > 10 | > 30 | – | – | – | – | > 30 | > 30 | > 10
24 | Cc1cc(CC(=O)O)n(C)c1C(=O)c1ccc(Cl)cc1 [ZOMEPIRAC] | > 30 | > 30 | > 30 | > 30 | > 30 | > 30 | > 30 | – | – | – | –
